Laboratory results from BindingDB's records for doi:10.1016/j.bmcl.2006.08.033 (University of Maryland, 2006).

Biological target: Guanine deaminase (Oryctolagus cuniculus)
Experiment: Inhibition of rabbit liver guanase

SMILES	Ki [µM]
O=C1NC(CO)C(=O)Nc2c1ncn2Cc1ccccc1 (configuration not stated) [3-benzyl-4,5,7,8-tetrahydro-6-hydroxymethyl-6H-imidazo[4,5-e][1,4]diazepine-5,8-dione]	20.1
O=C1NC(CO)C(=O)Nc2nc[nH]c21 (configuration not stated) [4,5,7,8-tetrahydro-6-hydroxymethyl-6H-imidazo[4,5-e][1,4]diazepine-5,8-dione]	53.6
